Toxic doses and inconclusive results are not listed. No stated cut-off is given here; in the data, active means T/C of 150% or more; inactive means T/C below 125%.
Tested on: L1210 leukemia ip in BDF1 mice, survival T/C
Assay: NCI In Vivo Anticancer Drug Screen. Data for tumor model L1210 Leukemia (intraperitoneal) in B6D2F1 (BDF1) mice
Conditions: endpoint: mean survival time, higher = longer survival
How it was run: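 Each compound was tested against a transplantable tumor grown in mice. The endpoint was survival, with treated animals benchmarked against vehicle controls as a simple ratio.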

[1] = dose: 100.0 mg/kg/injection, schedule: Q04DX002 (ip), vehicle: saline with Tween-80
[2] = dose: 100.0 mg/kg/injection, schedule: Q04DX003 (ip), vehicle: saline with Tween-80
[3] = dose: 200.0 mg/kg/injection, schedule: Q04DX003 (ip), vehicle: saline with Tween-80
[4] = dose: 400.0 mg/kg/injection, schedule: Q04DX003 (ip), vehicle: saline with Tween-80
[5] = dose: 25.0 mg/kg/injection, schedule: Q01DX009 (ip), vehicle: saline with Tween-80
[6] = dose: 50.0 mg/kg/injection, schedule: Q01DX009 (ip), vehicle: saline with Tween-80
[7] = dose: 100.0 mg/kg/injection, schedule: Q01DX009 (ip), vehicle: saline with Tween-80
[8] = dose: 200.0 mg/kg/injection, schedule: Q01DX009 (ip), vehicle: saline with Tween-80
[9] = dose: 100.0 mg/kg/injection, schedule: Q04DX002 (ip), vehicle: Klucel (hydroxypropylcellulose) (HPC)
[10] = dose: 200.0 mg/kg/injection, schedule: Q04DX002 (ip), vehicle: Klucel (hydroxypropylcellulose) (HPC)
[11] = dose: 400.0 mg/kg/injection, schedule: Q04DX002 (ip), vehicle: Klucel (hydroxypropylcellulose) (HPC)

Measured: T/C

CNC(=O)c1cc(C(=O)NC)c[n+](Cc2c(Cl)cccc2Cl)c1
inactive: dose: 18.75 mg/kg/injection, schedule: Q01DX009 (ip), vehicle: saline 92 % of control | dose: 37.5 mg/kg/injection, schedule: Q01DX009 (ip), vehicle: saline 103 % of control | dose: 37.5 mg/kg/injection, schedule: Q04DX003 (ip), vehicle: saline 100 % of control | dose: 75.0 mg/kg/injection, schedule: Q01DX001 (ip), vehicle: saline 96 % of control | dose: 75.0 mg/kg/injection, schedule: Q01DX009 (ip), vehicle: saline 100 % of control | dose: 75.0 mg/kg/injection, schedule: Q04DX003 (ip), vehicle: saline 105 % of control | dose: 150.0 mg/kg/injection, schedule: Q01DX001 (ip), vehicle: saline 98 % of control | dose: 150.0 mg/kg/injection, schedule: Q04DX003 (ip), vehicle: saline 97 % of control

Cc1csc2ncnc(Cl)c12
inactive: dose: 25.0 mg/kg/injection, schedule: Q04DX002 (ip), vehicle: saline with Tween-80 98 % of control | dose: 50.0 mg/kg/injection, schedule: Q04DX002 (ip), vehicle: saline with Tween-80 91 % of control | [1] 94 % of control

Cc1cc(C(=O)c2ccccc2)ccc1O
inactive: dose: 50.0 mg/kg/injection, schedule: Q01DX001 (ip), vehicle: carboxymethylcellulose (CMC) 100 % of control | dose: 100.0 mg/kg/injection, schedule: Q01DX001 (ip), vehicle: carboxymethylcellulose (CMC) 96 % of control | dose: 200.0 mg/kg/injection, schedule: Q01DX001 (ip), vehicle: carboxymethylcellulose (CMC) 91 % of control | dose: 400.0 mg/kg/injection, schedule: Q01DX001 (ip), vehicle: carboxymethylcellulose (CMC) 96 % of control

CS(=O)(=O)OCCN(CCOS(C)(=O)=O)c1ccc([N+](=O)[O-])c(Cl)c1
inactive: dose: 50.0 mg/kg/injection, schedule: Q01DX001 (ip), vehicle: saline 96 % of control | dose: 100.0 mg/kg/injection, schedule: Q01DX001 (ip), vehicle: saline 96 % of control | dose: 200.0 mg/kg/injection, schedule: Q01DX001 (ip), vehicle: saline 100 % of control | dose: 400.0 mg/kg/injection, schedule: Q01DX001 (ip), vehicle: saline 91 % of control

BrC12CC3CC(CC(C3)C1)C2
inactive: [2] 98 % of control | [3] 102 % of control | [4] 98 % of control

C#CC1(OCC(CCl)OC(N)=O)CCCCC1 (stereo not given)
inactive: [5] 105 % of control | dose: 25.0 mg/kg/injection, schedule: Q04DX003 (ip), vehicle: saline with Tween-80 105 % of control | [6] 105 % of control | dose: 50.0 mg/kg/injection, schedule: Q04DX003 (ip), vehicle: saline with Tween-80 95 % of control | [7] 102 % of control | [2] 101 % of control | [8] 105 % of control | [3] 100 % of control | dose: 400.0 mg/kg/injection, schedule: Q01DX009 (ip), vehicle: saline with Tween-80 97 % of control | [4] 86 % of control

O=[N+]([O-])c1ccc(OCc2cccc(Cl)c2S(=O)(=O)F)c(Cl)c1
inactive: dose: 100.0 mg/kg/injection, schedule: Q04DX003 (ip), vehicle: gum acacia 98 % of control | dose: 200.0 mg/kg/injection, schedule: Q04DX003 (ip), vehicle: gum acacia 104 % of control | dose: 400.0 mg/kg/injection, schedule: Q04DX003 (ip), vehicle: gum acacia 97 % of control

O=C(O)C1CC=CCC1C(=O)Nc1cccc(O)c1 (stereo not given)
inactive: [9] 99 % of control | [10] 105 % of control | [11] 99 % of control

CCC(C)(C)ON=O
inactive: [1] 107 % of control | dose: 200.0 mg/kg/injection, schedule: Q04DX002 (ip), vehicle: saline with Tween-80 100 % of control | dose: 400.0 mg/kg/injection, schedule: Q04DX002 (ip), vehicle: saline with Tween-80 96 % of control

c1ccc(N2CCOCC2)cc1
inactive: dose: 12.5 mg/kg/injection, schedule: Q01DX009 (ip), vehicle: saline with Tween-80 93 % of control | [5] 100 % of control | [6] 89 % of control | dose: 100.0 mg/kg/injection, schedule: Q01DX009 (ip), vehicle: Klucel (hydroxypropylcellulose) (HPC) 95 % of control | [7] 92 % of control | dose: 200.0 mg/kg/injection, schedule: Q01DX009 (ip), vehicle: Klucel (hydroxypropylcellulose) (HPC) 93 % of control | [8] 92 % of control | dose: 400.0 mg/kg/injection, schedule: Q01DX009 (ip), vehicle: Klucel (hydroxypropylcellulose) (HPC) 101 % of control

COc1ccccc1/C=C/C(=O)N1CCC2(CC1)C(=O)N(C)CN2c1ccccc1
inactive: dose: 75.0 mg/kg/injection, schedule: Q04DX003 (ip), vehicle: Klucel (hydroxypropylcellulose) (HPC) 96 % of control | dose: 150.0 mg/kg/injection, schedule: Q04DX003 (ip), vehicle: Klucel (hydroxypropylcellulose) (HPC) 86 % of control | dose: 300.0 mg/kg/injection, schedule: Q04DX003 (ip), vehicle: Klucel (hydroxypropylcellulose) (HPC) 91 % of control

OC1COC(OCc2ccccc2)C(O)C1O (stereo not given)
inactive: dose: 100.0 mg/kg/injection, schedule: Q01DX001 (ip), vehicle: Klucel (hydroxypropylcellulose) (HPC) 101 % of control | [2] 101 % of control | dose: 200.0 mg/kg/injection, schedule: Q01DX001 (ip), vehicle: Klucel (hydroxypropylcellulose) (HPC) 96 % of control | [3] 100 % of control | dose: 400.0 mg/kg/injection, schedule: Q01DX001 (ip), vehicle: Klucel (hydroxypropylcellulose) (HPC) 101 % of control

O=S(=O)(OCCOS(=O)(=O)c1ccccc1)c1ccccc1
inactive: [9] 115 % of control | [10] 107 % of control | [11] 100 % of control
